Measured values: article PMC7915519, “Zinc(II) Complexes of Amino Acids as New Active Ingredients for Anti-Acne Dermatological Preparations” (International Journal of Molecular Sciences, 2021)

Columns and labels:
[1] = tested on: human epidermal keratinocytes, neonatal; experiment: Cytotoxicity, Presto Blue cell viability assay on human epidermal keratinocytes; type: cell-based; details: 24 h incubation, Hill Equation, read-out: IC50 Values (Mean ± SD) Keratinocytes
Description: (§1) The cytotoxicity test was conducted on a 1BR.3.N cell line (human skin fibroblasts, ECACC, co. 90020508) and human epidermal keratinocytes, neonatal (Millipore, co. SCCE020) purchased from Sigma-Aldrich (Merck, Darmstadt, Germany). The same procedure was conducted for keratinocytes in EpiGROTM human epidermal keratinocyte complete media with 6 mM L-glutamine, 0.405 EpiFactor P, 1.0 μM epinephrine, 0.5 ng/mL rh TGF-α, 100 ng/mL hydrocortisone hemisuccinate, 5 μg/mL rh insulin and apo-transferrin. The cells were maintained at 37 °C and 5% CO2 in a humidified incubator. Next, the medium was changed into a starvation medium for the 1BR.3.N cell line (EpiGROTM human epidermal keratinocyte complete media kit for keratinocytes) with a variable final concentration of five analyzed complexes (ZnGlu (1), ZnGly (2), ZnHis (3), ZnPro (4), ZnTrp (6)) and two controls, ZnPCA and ZnCl2.

[2] = tested on: Cutibacterium acnes ATCC 6919; experiment: Antimicrobial activity by microdilution method (CLSI M11), anaerobic conditions; type: cell-based; details: C. acnes ATCC 6919, 48 h at 37 °C, tested up to 500 mg/L
Description: The antimicrobial potential of zinc complexes against the anaerobic strain Cutibacterium acnes ATCC 6919 was tested by the microdilution method in Brucella broth supplemented with hemin, vitamin K1 and laked horse blood according to the CLSI document M11 (9th Edition) for antimicrobial susceptibility testing of anaerobic bacteria. Antimicrobial activity testing assays were conducted in 96-well cell culture plates in anaerobic conditions. The antimicrobial properties of zinc complexes were tested up to 500 mg/L. […] The bacterial suspension and dilutions of the tested compounds were combined in equal volumes to achieve the expected concentrations of zinc amino acid complexes. Samples as well as adequate abiotic and biotic controls were incubated for 48 h at 37 °C after being placed in 96-well cell culture plates in anaerobic jars, in which anaerobic conditions were formed using Anoxomat Mark II CTS (Mart Microbiology […], the Netherlands). The minimum inhibitory concentration (MIC), expressed in mg/L, was determined as the lowest concentration of zinc amino acid complexes at which no growth of C. acnes was observed. […] The Brucella agar plates were incubated for 48 h at 37 °C after placing the plates in anaerobic jars, in which anaerobic conditions were created.

[3] = tested on: human skin fibroblasts (1BR.3.N cell line); experiment: Cytotoxicity, Presto Blue cell viability assay on human skin fibroblasts; type: cell-based; details: 1BR.3.N human skin fibroblasts, 24 h incubation, Hill Equation, read-out: IC50 Values (Mean ± SD) Fibroblasts
Description: as §1, with “The same procedure was conducted for keratinocytes in EpiGROTM human epidermal keratinocyte complete media with 6 mM L-glutamine, 0.405 EpiFactor P, 1.0 μM epinephrine, 0.5 ng/mL rh TGF-α, 100 ng/mL hydrocortisone hemisuccinate, 5 μg/mL rh insulin and apo-transferrin.” left out

[4] = tested on: L929 fibroblast cultures; parameters: method as in PMID 28246541; details: murine model; read-out: IC50 against L929 fibroblast cultures; cited from earlier work
[5] = tested on: HaCaT keratinocytes; details: concentration equal to 100 μM; cited from earlier work
[6] = tested on: human lung fibroblast (MRC-5) cell line; parameters: method as in PMID 30594780; details: concentrations up to 100 µM; cited from earlier work

| Compound | IC50 [1] | MIC Value [2] | IC50 [3] | IC50 [4] | toxicity to HaCaT keratinocytes [5] | toxic effects on MRC-5 cell line [6] |
| --- | --- | --- | --- | --- | --- | --- |
| NCC(=O)[O-].NCC(=O)[O-].[Zn+2] [ZnGly (2)] | 138 ± 8.11 µM | 100 µg/mL | 120 ± 4.61 µM |  |  |  |
| O=C1CCC(C(=O)[O-])N1.O=C1CCC(C(=O)[O-])N1.[Zn+2] (centres unmarked) [ZnPCA, zinc 2-pirrolidone 5-carboxylate] | 102 ± 2.07 µM | 175 µg/mL | 172 ± 9.69 µM |  |  |  |
| [Cl-].[Cl-].[Zn+2] [ZnCl2] | 127 µM |  | 163 ± 4.1 µM | 0.928 µM | non-toxic |  |
| copper(II) complex with 5-hydroxytryptophan |  |  |  |  |  | no toxic effects |
